Series [1] concerns isolated guinea pig hearts. Kind of series: Experiments on the Langendorff heart (isolated guinea pig hearts). Conditions: Cavia porcellus, 25 μg./ml. test substance in 50 ml. tyrode solution, average of 3-6 hearts.
For series [2], the system named is narcotised guinea pigs. The series is described as follows: Blood pressure experiments on the narcotised guinea pig (i.v.). As to conditions: for blood pressure afterwards: after administration; for blood pressure previously: before administration (baseline); for blood pressure-lowering effectiveness compared with ISMN and ISDN: in words, guinea pig i.v., Table III.

Series [3] has as its system isolated rat aorta preparations.
From the text: Here, too, ISDN and ISMN were chosen as comparison compounds.
Series [4] can be described thus: in vivo. As to conditions: mouse, iv, Evaluated LD50 -range, mice, as hydrochloride.
Method: (§1) The compounds were injected to at least 3 animals per dose. If no animal had yet been died following to the highest dose which was administered, no more doses of substances were tested. In case of doubt, the examination was repeated with at least 3 more animals applying the same dose.
(§2) The rate of death within 24 hours after administration was observed.
Series [5] deals with female NMRI-albino mice. The series is described as follows: Acute toxicity, intravenous, female NMRI-albino mice. Conditions: for Frequency of death with an intravenous dose of 100 mg/kg: 100 mg/kg i.v. as hydrochloride in physiological saline; for Frequency of death with an intravenous dose of 100 mg/kg / Frequency of death with an intravenous dose of 200 mg/kg: death within 24 hours, dead/treated; for Frequency of death with an intravenous dose of 200 mg/kg: 200 mg/kg i.v. as hydrochloride in physiological saline.
Method: as §1, §2

Series [6] deals with mongrel cats. The series is described as follows: Heart-circulation effectiveness in narcotised mongrel cats, intraduodenal administration. As to conditions: 5 mg/kg intraduodenal, cat.
Method: The animals were narcotised with a mixture of chloralose-urethane (1.2 g./kg. urethane+40 mg./kg chloralose administered i.p.). They breathed spontaneously through a tracheal canula. The A. carotis was used in order to place a catheter tip manometer in the left heart chamber. The V. jugularis served for injection purposes. Via the A. femoralis, a catheter was inserted into the Aorta descendans and attached to a pressure recorder (Statham P 23 Db). The heart frequency was recorded with a pulse frequency measurer (firm Hugo Sachs Elektronik) from the left ventricular pressure signal. A duodenal loop was exposed by laparotomy. The substances to be tested were injected directly into the lumen.
Setting [7] is: read-out: flowthrough, percentage change in comparison with the initial value.
Where [8] appears, read: read-out: frequency, percentage change in comparison with the initial value.
Where [9] appears, read: read-out: inotropism, percentage change in comparison with the initial value.
Setting [10] is: read-out: noradrenaline spasm, […].
Where [11] appears, read: read-out: potassium chloride spasm, […].
Where [12] appears, read: 0 min (baseline), average ± standard error, 6 animals.

Structures are written as SMILES. Read-outs that look alike come from different tables or passages of the source.

From patent US4364953A, “2-0- and 5-0-Substituted 1.4;3.6-dianhydrohexitol mononitrates and pharmaceutical composition” (Firma Willmar Schwabe, priority 1980, dated 1982) come the findings set out here.

On to `O=[N+]([O-])O[C@H]1CO[C@H]2[C@@H]1OC[C@@H]2Oc1ccc(Cl)cc1` [Example 1c, 5-O-(4-Chlorophenyl)-1.4;3.6-dianhydro-L-iditol 2-nitrate], for which the figures for the activation at 25 µg/mL in series [1] (setting [7]), in series [1] (setting [8]) and in series [1] (setting [9]) were 19.8%, 2.89% and 12.2%, respectively. Besides, the “blood pressure Δ” value in series [2] (0.25 mg/kg i.v.) was -1.60 mm.Hg; in series [2] (1.00 mg/kg i.v.), -15.00 mm.Hg; in series [2] (2.50 mg/kg i.v.), -23.00 mm.Hg. Further, the blood pressure afterwards in series [2] (0.25 mg/kg i.v.) was found to be 59.70 ± 2.40 mm.Hg; in series [2] (1.00 mg/kg i.v.), 46.90 ± 1.20 mm.Hg; in series [2] (2.50 mg/kg i.v.), 37.60 ± 1.00 mm.Hg. The blood pressure previously in series [2] (0.25 mg/kg i.v.) came out at 61.30 ± 2.60 mm.Hg; in series [2] (1.00 mg/kg i.v.), 61.90 ± 1.90 mm.Hg; in series [2] (2.50 mg/kg i.v.), 60.60 ± 1.80 mm.Hg. In addition, the IC50 in series [3] (setting [10]) was determined as 0.14 µM; in series [3] (setting [11]), 3.18 µM.
As usually defined, the LD50 is the dose expected to kill half of the subjects tested. For the compound `O=C(O[C@H]1CO[C@H]2[C@@H]1OC[C@@H]2O[N+](=O)[O-])c1cccnc1` [Example 2b, 1.4;3.6-Dianhydro-L-iditol 2-nitrate 5-nicotinate], the results for the activation at 25 µg/mL in series [1] (setting [7]), in series [1] (setting [8]) and in series [1] (setting [9]) were 35.4%, 0% and 3.36%, respectively. In series [4], this compound registered an LD50 at 24 h of at least 200 mg/kg. Further, in series [5], the “Frequency of death with an intravenous dose of 100 mg/kg” value (“Frequency of death … of 100 mg/kg” below) is on record as 0/6. For the same compound, the “Frequency of death with an intravenous dose of 200 mg/kg” value (shortened to “Frequency of death … of 200 mg/kg”) in series [5] is on record as 2/6. The “blood pressure Δ” value in series [2] (0.25 mg/kg i.v.) is recorded as -11.40 mm.Hg; in series [2] (1.00 mg/kg i.v.), -15.60 mm.Hg; in series [2] (2.50 mg/kg i.v.) it was -20.70 mm.Hg. Further, the blood pressure afterwards was 47.30 ± 2.60 mm.Hg in series [2] (0.25 mg/kg i.v.), 42.70 ± 1.80 mm.Hg in series [2] (1.00 mg/kg i.v.) and 33.00 ± 1.00 mm.Hg in series [2] (2.50 mg/kg i.v.). The blood pressure previously in series [2] (0.25 mg/kg i.v.) came to 58.70 ± 4.30 mm.Hg; in series [2] (1.00 mg/kg i.v.), 58.30 ± 2.00 mm.Hg; in series [2] (2.50 mg/kg i.v.), 53.70 ± 3.30 mm.Hg. The “blood pressure-lowering effectiveness compared with ISMN and ISDN” value in series [2] is “actions similar to those of ISDN”. The IC50 in series [3] (setting [10]) worked out at 0.28 µM; in series [3] (setting [11]), 3.1 µM.
`CS(=O)(=O)O[C@@H]1CO[C@H]2[C@@H]1OC[C@@H]2O[N+](=O)[O-]` [Example 4, 1.4;3.6-Dianhydro-D-glucitol 2-nitrate 5-methanesulphonate]: the activation at 25 µg/mL in series [1] (setting [7]) is 44.3%; in series [1] (setting [8]), 0%; in series [1] (setting [9]), 0%. The IC50 worked out at 2.2 µM in series [3] (setting [10]) and 2.8 µM in series [3] (setting [11]).
As to `O=C(O[C@@H]1CO[C@H]2[C@@H]1OC[C@@H]2O[N+](=O)[O-])c1cccnc1` [Example 5b, 1.4;3.6-Dianhydro-D-glucitol 2-nitrate 5-nicotinate], the figures for the activation at 25 µg/mL in series [1] (setting [7]), in series [1] (setting [8]) and in series [1] (setting [9]) were 23.6%, -9.13% and 15.8%, respectively. In series [4], this compound gave an LD50 at 24 h of over 100 mg/kg. Besides, in series [5], the “Frequency of death … of 100 mg/kg” value is recorded as 0/6. For the same compound, the “blood pressure Δ” value is given as -7.70 mm.Hg in series [2] (0.25 mg/kg i.v.); -18.00 mm.Hg in series [2] (1.00 mg/kg i.v.); -28.00 mm.Hg in series [2] (2.50 mg/kg i.v.); -25.2 mm.Hg in series [6] (10 min versus 0 min); -28.7 mm.Hg in series [6] (30 min versus 0 min); -29.7 mm.Hg in series [6] (60 min versus 0 min). Also, the “blood pressure Δ” value in series [6] (120 min versus 0 min) is on record as -22.2 mm.Hg. For the same compound, the results for the blood pressure afterwards in series [2] (0.25 mg/kg i.v.), in series [2] (1.00 mg/kg i.v.) and in series [2] (2.50 mg/kg i.v.) were 55.00 ± 1.00 mm.Hg, 44.30 ± 0.90 mm.Hg and 33.30 ± 0.70 mm.Hg, respectively. Moreover, the blood pressure previously in series [2] (0.25 mg/kg i.v.) amounted to 62.70 ± 3.00 mm.Hg; in series [2] (1.00 mg/kg i.v.) it was 62.30 ± 4.10 mm.Hg; in series [2] (2.50 mg/kg i.v.), 61.30 ± 4.90 mm.Hg. Moreover, in series [2], the “blood pressure-lowering effectiveness compared with ISMN and ISDN” value is “actions similar to those of ISDN”. The blood pressure is given as 123.5 ± 7.3 mm.Hg in series [6] (setting [12]); 98.3 ± 6.2 mm.Hg in series [6] (10 min after admin.); 94.8 ± 7.2 mm.Hg in series [6] (30 min after admin.); 93.8 ± 7.8 mm.Hg in series [6] (60 min after admin.); 101.3 ± 11.2 mm.Hg in series [6] (120 min after admin.). In addition, the “dp/dt (inotropism)” value is on record as 10625 ± 2083 mm.sec in series [6] (setting [12]); 8050 ± 1204 mm.sec in series [6] (10 min after admin.); 7975 ± 1216 mm.sec in series [6] (30 min after admin.); 8275 ± 309 mm.sec in series [6] (60 min after admin.); 7500 ± 1022 mm.sec in series [6] (120 min after admin.). Moreover, the heart frequency in series [6] (setting [12]) amounted to 211.5 ± 19.3 min⁻¹; in series [6] (10 min after admin.) it was 209.5 ± 19.2 min⁻¹; in series [6] (30 min after admin.) it was 212.5 ± 21.6 min⁻¹; in series [6] (60 min after admin.) it was 225.0 ± 16.2 min⁻¹; in series [6] (120 min after admin.), 228.0 ± 15.6 min⁻¹. Further, the “dp/dt Δ” value is -2575 mm.sec in series [6] (10 min versus 0 min), -2650 mm.sec in series [6] (30 min versus 0 min), -2350 mm.sec in series [6] (60 min versus 0 min) and -3125 mm.sec in series [6] (120 min versus 0 min). For the same compound, the IC50 in series [3] (setting [10]) is 6.2 µM; in series [3] (setting [11]) it was 22.5 µM.
In series [4], `O=C(O[C@H]1CO[C@H]2[C@@H]1OC[C@H]2O[N+](=O)[O-])c1cccnc1` [Example 7b, 1.4;3.6-Dianhydro-D-glucitol 2-nicotinate 5-nitrate] came in with an LD50 at 24 h of over 200 mg/kg. Further, in series [5], the “Frequency of death … of 200 mg/kg” value is 0/6. Further, the IC50 in series [3] (setting [10]) stood at 20 µM; in series [3] (setting [11]) it was 44 µM.
`O=C(O[C@@H]1CO[C@H]2[C@@H]1OC[C@H]2O[N+](=O)[O-])c1cccnc1` [Example 8, 1.4;3.6-Dianhydro-D-mannitol 2-nitrate 5-nicotinate]: in series [4], the LD50 at 24 h is under 200 mg/kg. For the same compound, in series [5], the “Frequency of death … of 100 mg/kg” value was 0/6 and the “Frequency of death … of 200 mg/kg” value is given as 3/3. Also, the “Evaluated LD50 -range” value in series [5] (i.v., mice, as hydrochloride, 24 hours, 1440 min) was over 100 mg/kg.
